Target: T1, VEGFR2 (vascular endothelial growth factor receptor 2) (Homo sapiens, UniProt P35968)
T1 construct: gene KDR
Assay: SPR (Biacore T200, VEGFR2 immobilized on CM5 chip); also ELISA-based kinase assay IC50 […]
Assay type: binding

T1 sequence (P35968 20-1356): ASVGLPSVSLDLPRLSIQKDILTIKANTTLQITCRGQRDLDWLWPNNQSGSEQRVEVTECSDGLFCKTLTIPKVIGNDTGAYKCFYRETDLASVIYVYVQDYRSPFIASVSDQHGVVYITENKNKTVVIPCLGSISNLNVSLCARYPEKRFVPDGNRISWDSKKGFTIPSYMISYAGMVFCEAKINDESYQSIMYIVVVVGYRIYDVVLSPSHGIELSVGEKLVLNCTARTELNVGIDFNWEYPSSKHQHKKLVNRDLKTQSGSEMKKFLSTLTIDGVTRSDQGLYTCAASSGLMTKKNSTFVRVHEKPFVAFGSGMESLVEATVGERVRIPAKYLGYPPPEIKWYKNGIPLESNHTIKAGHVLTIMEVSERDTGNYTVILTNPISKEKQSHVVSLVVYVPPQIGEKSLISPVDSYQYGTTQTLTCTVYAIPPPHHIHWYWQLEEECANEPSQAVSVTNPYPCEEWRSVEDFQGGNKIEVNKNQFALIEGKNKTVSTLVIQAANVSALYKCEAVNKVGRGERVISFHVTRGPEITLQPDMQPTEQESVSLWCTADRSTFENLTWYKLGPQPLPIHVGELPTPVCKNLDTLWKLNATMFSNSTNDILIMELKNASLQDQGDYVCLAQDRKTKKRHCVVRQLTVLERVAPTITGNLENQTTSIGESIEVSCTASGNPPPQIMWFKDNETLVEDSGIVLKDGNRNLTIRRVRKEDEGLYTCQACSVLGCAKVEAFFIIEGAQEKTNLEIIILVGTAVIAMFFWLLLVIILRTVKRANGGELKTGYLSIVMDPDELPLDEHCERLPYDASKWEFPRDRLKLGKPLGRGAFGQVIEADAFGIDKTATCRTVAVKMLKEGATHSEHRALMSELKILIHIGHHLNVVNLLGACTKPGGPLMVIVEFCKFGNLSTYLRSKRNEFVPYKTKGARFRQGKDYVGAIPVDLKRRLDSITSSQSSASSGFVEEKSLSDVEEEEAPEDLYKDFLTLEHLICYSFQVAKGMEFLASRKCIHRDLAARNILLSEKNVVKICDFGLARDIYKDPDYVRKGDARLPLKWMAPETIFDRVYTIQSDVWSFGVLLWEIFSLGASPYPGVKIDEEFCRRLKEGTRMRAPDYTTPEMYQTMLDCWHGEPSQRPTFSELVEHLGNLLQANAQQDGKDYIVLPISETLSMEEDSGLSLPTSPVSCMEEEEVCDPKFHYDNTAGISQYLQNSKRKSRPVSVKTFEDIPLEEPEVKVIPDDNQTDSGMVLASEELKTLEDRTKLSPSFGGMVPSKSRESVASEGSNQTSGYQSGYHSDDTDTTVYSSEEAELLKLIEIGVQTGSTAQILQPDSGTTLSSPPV

**Q.** With O=c1c2ccccc2nc2n1CCc1c-2[nH]c2ccccc12 [rutaecarpine] as the molecule, how does the Kd read?
**A.** Its Kd is 471 nM.

Reference: PMC6222666, “Rutacecarpine Inhibits Angiogenesis by Targeting the VEGFR2 and VEGFR2-Mediated Akt/mTOR/p70s6k Signaling Pathway” (Molecules : A Journal of Synthetic Chemistry and Natural …, 2018)
